Results as given in patent US9580391B2, “Saturated acyl guanidine for inhibition of F1F0-ATPase” (Lycera Corporation, priority 2012, dated 2017).

What was measured:
F1F0-ATPase = molecular target: T1, F1F0-ATPase (Bos taurus, UniProt P13621); test: Inhibition of F1F0-ATPase activity in synthesizing ATP; assay type: biochemical; conditions: inhibition of ATP synthesis; read-out: ATP Syn IC50
T1 construct: from tissue
Procedure: (§1) Compounds described in above Examples were tested for activity against F1F0-ATPase by measuring the ability of the compounds to inhibit ATP synthesis. In addition, the compounds were assessed for cytotoxicity in Ramos cells. Inhibition of F1F0-ATPase activity in synthesizing ATP and cytotoxicity in Ramos cells were measured according to the procedures described in K. M. Johnson et al. Chemistry & Biology 2005, 12, 485-496.

Ramos cells = test: Cytotoxicity in Ramos cells; assay type: cell-based; conditions: Homo sapiens, read-out: Ramos Cell EC50
Procedure: as §1

Row | SMILES | IC50 (F1F0-ATPase) [µM] | EC50 (Ramos cells) [µM]
1 | O=C(/N=C(/Nc1cccc(Cl)c1)Nc1ccc2cn[nH]c2c1)C1CCCCC1 [Compound 2, (E)-N-(((1H-Indazol-6-yl)amino)((3-chlorophenyl)amino)methylene)cyclohexanecarboxamide] | 5 to 16 | 5 to 16
2 | CC(C)(C)CC(=O)/N=C(\Nc1cc(-c2ccc(F)cc2)[nH]n1)NC(C)(C)C [Compound 1, (Z)—N-((tert-Butylamino)((5-(4-fluorophenyl)-1H-pyrazol-3-yl)amino)methylene)-3,3-dimethylbutanamide] | < 5 | 5 to 16
3 | O=C(Cc1ccc(Cl)cc1)/N=C(/Nc1cc(F)cc(Cl)c1)Nc1ccc2cn[nH]c2c1 [Compound 3, N-(((1H-Indazol-6-yl)amino)((3-chloro-5-fluorophenyl)amino)methylene)-2-(4-chlorophenyl)acetamide] | < 5 | 5 to 16
